How the values were obtained:
[1] = test system: Plasmodium falciparum; assay: Antiplasmodial activity against chloroquine-sensitive Plasmodium falciparum NF54 by LDH assay; type: functional, organism-based
[2] = test system: CHO; assay: Cytotoxicity against CHO cells by MTT assay; type: cell-based; conditions: Cricetulus griseus
[3] = Selectivity index, ratio of IC50 for CHO cells to IC50 for chloroquine-sensitive Plasmodium falciparum NF54; type: toxicity, cell-based; conditions: hamster; read-out: Ratio IC50
[4] = test system: Plasmodium falciparum; assay: Antiplasmodial activity against chloroquine-resistant Plasmodium falciparum Dd2 by LDH assay; type: functional, organism-based
[5] = Resistance index, ratio of IC50 for chloroquine-resistant Plasmodium falciparum Dd2 to IC50 for chloroquine-sensitive Plasmodium falciparum NF54

COc1ccc(CN2CC2COc2cccc3cnccc23)cc1 (configuration not stated)
IC50 [1]: 9.99 µM

FC(F)(F)c1ccc(CN2CC2COc2cccc3cnccc23)cc1 (configuration not stated)
IC50 [1]: > 27.9 µM

Cn1nc(C(F)(F)F)cc1OCC1CN1Cc1cc2ccccc2nc1Cl (configuration not stated)
IC50 [1]: > 25.2 µM

c1ccc(CN2CC2COc2cccc3cnccc23)cc1 (configuration not stated)
IC50 [1]: 9.99 µM

Clc1ccc(CN2CC2COc2cccc3cnccc23)c(Cl)c1 (configuration not stated)
IC50 [1]: > 27.8 µM

Clc1ccc(CNC(CNc2ccccc2)COc2cccc3cnccc23)cc1 (configuration not stated)
IC50 [1]: 10.5 µM

CC[C@H]1CN2CCc3cc(OC)c(OC)cc3[C@@H]2C[C@@H]1C[C@H]1NCCc2cc(OC)c(OC)cc21 [EMETINE]
IC50 [2]: 0.4 µM

COCC(Cn1ncc(Cl)c(Cl)c1=O)NCc1ccnc2ccccc12 (configuration not stated)
IC50 [1]: 14.5 µM

Cn1nc(C(F)(F)F)cc1OCC1CN1Cc1cnc2ccccc2c1 (configuration not stated)
IC50 [1]: > 27.6 µM

Cn1nc(C(F)(F)F)cc1OCC(CO)NCc1cc2ccccc2nc1Cl (configuration not stated)
IC50 [1]: > 24.1 µM

OCC(COc1cccc2cnccc12)NCc1ccc(Cl)cc1 (configuration not stated)
IC50 [1]: 22.8 µM

COCC(COc1cccc2cnccc12)NCc1ccc(OC)cc1 (configuration not stated)
IC50 [1]: > 28.4 µM

Cn1nc(C(F)(F)F)cc1OCC1CN1Cc1ccnc2ccccc12 (configuration not stated)
IC50 [1]: 9.66 µM

BrC(COc1cccc2c[n+](Cc3ccccc3)ccc12)CN(Cc1ccccc1)Cc1ccccc1.[Br-] (configuration not stated)
selectivity ratio [3]: 205
IC50 [2]: 45.1 µM
IC50 [1]: 0.22 µM
IC50 [4]: 1.17 µM
Ratio IC50 [5]: 5.32

COCC(COc1cccc2cnccc12)NCc1ccc(F)cc1 (configuration not stated)
IC50 [1]: 24.4 µM

OCC(COc1cccc2cnccc12)NCc1ccc(Cl)cc1Cl (configuration not stated)
IC50 [1]: > 26.5 µM

O=c1c(Cl)c(Cl)cnn1CC(CO)NCc1cnc2ccccc2c1 (configuration not stated)
IC50 [1]: 15.3 µM

Clc1ccc(CN2CC2COc2cccc3cnccc23)cc1 (configuration not stated)
IC50 [1]: > 30.8 µM

COCC(COc1cc(C(F)(F)F)nn1C)NCc1cc2ccccc2nc1OC (configuration not stated)
IC50 [1]: > 23.6 µM

Cn1nc(C(F)(F)F)cc1OCC(CO)NCc1cnc2ccccc2c1 (configuration not stated)
selectivity ratio [3]: 38.3
IC50 [2]: 181 µM
IC50 [1]: 4.73 µM
IC50 [4]: 15.2 µM

O=c1nc(C(F)(F)F)ccn1CC1CN1Cc1cc2ccccc2nc1Cl (configuration not stated)
IC50 [1]: 9.12 µM

OCC(COc1cccc2cnccc12)NCc1ccc(C(F)(F)F)cc1 (configuration not stated)
IC50 [1]: 11.7 µM

O=c1c(Cl)c(Cl)cnn1CC(CO)NCc1ccnc2ccccc12 (configuration not stated)
IC50 [1]: 24.5 µM

COCC(COc1cc(C(F)(F)F)nn1C)NCc1cc2ccccc2nc1Cl (configuration not stated)
IC50 [1]: 17 µM

c1ccc(CNC(CNc2ccccc2)COc2cccc3cnccc23)cc1 (configuration not stated)
selectivity ratio [3]: 50.5
IC50 [2]: 237 µM
IC50 [1]: 4.69 µM
IC50 [4]: 8.21 µM
Ratio IC50 [5]: 1.75

COc1ccccc1CN1CC1COc1cccc2cnccc12 (configuration not stated)
selectivity ratio [3]: 9.88
IC50 [2]: 52.3 µM
IC50 [1]: 5.29 µM
IC50 [4]: 8.46 µM
Ratio IC50 [5]: 1.6

COCC(COc1cccc2cnccc12)NCc1ccccc1OC (configuration not stated)
IC50 [1]: > 28.4 µM

COCC(COc1cccc2cnccc12)NCc1ccccc1 (configuration not stated)
IC50 [1]: 13 µM

[Br-].c1ccc(CN2CC2COc2cccc3c[n+](Cc4ccccc4)ccc23)cc1 (configuration not stated)
selectivity ratio [3]: 47.7
IC50 [2]: 51.8 µM
IC50 [1]: 1.09 µM
IC50 [4]: 1.02 µM
Ratio IC50 [5]: 0.94

Fc1ccc(CN2CC2COc2cccc3cnccc23)cc1 (configuration not stated)
IC50 [1]: 15.9 µM

O=c1c(Cl)c(Cl)cnn1CC(CO)NCc1cc2ccccc2nc1Cl (configuration not stated)
IC50 [1]: 15 µM

Clc1ccccc1CN1CC1COc1cccc2cnccc12 (configuration not stated)
IC50 [1]: 12.9 µM

OCC(COc1cccc2cnccc12)NCc1ccccc1 (configuration not stated)
selectivity ratio [3]: 21.8
IC50 [2]: 148 µM
IC50 [1]: 6.81 µM
IC50 [4]: 17.6 µM
Ratio IC50 [5]: 2.58

C[C@H]1[C@H](OC(=O)CCC(=O)O)O[C@@H]2O[C@@]3(C)CC[C@H]4[C@H](C)CC[C@@H]1[C@@]24OO3 [ARTESUNATE]
IC50 [1]: 0.02 µM

O=c1c(Cl)c(Cl)cnn1CC1CN1Cc1cc2ccccc2nc1Cl (configuration not stated)
IC50 [1]: 22.8 µM

O=c1c(Cl)c(Cl)cnn1CC1CN1Cc1cnc2ccccc2c1 (configuration not stated)
IC50 [1]: 12.7 µM

COCC(COc1cccc2cnccc12)NCc1ccccc1Cl (configuration not stated)
IC50 [1]: 16.5 µM

O=c1c(Cl)c(Cl)cnn1CC1CN1Cc1ccnc2ccccc12 (configuration not stated)
IC50 [1]: 26.9 µM

O=c1nc(C(F)(F)F)ccn1CC1CN1Cc1cnc2ccccc2c1 (configuration not stated)
IC50 [1]: > 27.8 µM
